Our source for the IC50 values is US9938292B2 (GUANGDONG ZHONGSHENG PHARMACEUTICAL CO., LTD, priority 2014, dated 2018).

pIC50: −log10 of the molar value. Bounds are passed on as bounds.

This experiment has as its system Hedgehog signaling pathway. In words: Gli-Luc luciferase reporter gene assay in C3H10T1/2/Gli-Luc cells under Shh-N stimulation. The following applies: Mus musculus, C3H 10T1/2, 24 h, luciferase RLU, read-out: biological activity: IC50 of the inhibitory activities of compounds on the hedgehog pathway. The format is cell-based. The method, boiled down:
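IC50 derived by curve fitting of luciferase RLU against log compound concentration. Stable C3H10T1/2/Gli-Luc cells, seeded overnight, were co-treated 24 h with serially diluted compound (7 points, duplicate wells) and 30 nM Shh-N-containing HEK293 conditioned medium before lysis and luminescence readout.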
(In general: Reporter assays use an easily measured gene product as a stand-in for the process of interest.)
As usually defined, the pIC50 is the IC50 on a negative log10 scale, so that one unit is a factor of ten. As for `COc1c(-c2ccc(N3C[C@@H](C)O[C@@H](C)C3)cc2)nnc2c(-c3ccc(C#N)cc3)cccc12` [Embodiment 152, 4-(3-(4-((2R,6S)-2,6-dimethylmorpholino)phenyl)-4-methoxycinnolin-8-yl) benzonitrile], the pIC50 was ≥ 7.30.

Consider `COc1c(N2CCC(N3CC(C)OC(C)C3=O)CC2)cnc2c(-c3ccc(C#N)cc3)cccc12` (centres unmarked) [Embodiment 235, 4-(3-(4-(2,6-dimethyl-3-oxo-morpholino-4-yl)piperidin-1-yl)-4-methoxyquinolin-8-yl) benzonitrile], for which the pIC50 was ≥ 7.30.

As to `C[C@@H]1CN(c2ccc(-n3cc(Cl)c4c(-c5ccc(C#N)cc5)cccc4c3=O)cc2Cl)C[C@H](C)O1` [Embodiment 76, 4-(4-chloro-2-(3-chloro-4-((2S,6R)-2,6-dimethylmorpholino)phenyl)-1-oxo-1,2-dihydroisoquinolin-5-yl)benzonitrile], the negative-log IC50 (pIC50) is 6.30 to 7.00.

With `CC1CN(c2cnc3c(-c4ccc(C#N)cc4)cccc3c2Br)CCN1c1ccc(C(C)(C)O)cn1` (centres unmarked) [Embodiment 219, 4-(4-bromo-3-(4-(5-(2-hydroxypropan-2-yl)pyridin-2-yl)-3-methylpiperazin-1-yl)quinolin-8-yl)benzonitrile], the pIC50 was ≥ 7.30.

In the case of `COc1c(-c2ccc(N3C[C@@H](C)O[C@@H](C)C3)nc2)cnc2c(-c3ccc(C#N)cc3)cccc12` [Embodiment 158, 4-(3-(6-((2S,6R)-2,6-dimethylmorpholino)pyridin-3-yl)-4-methoxyquinolin-8-yl) benzonitrile], the negative logarithm of the IC50 (pIC50) was ≥ 7.30.

Regarding `Cc1cn(-c2ccc(N3CCN4C(=O)OCC4C3)cc2)c(=O)c2cccc(-c3ccc(C#N)cc3)c12` (centres unmarked) [Embodiment 42, 4-(4-methyl-1-oxo-2-(4-(3-oxotetrahydro-1H-oxazolo[3,4-a]pyrazin-7(3H)-yl)phenyl)-1,2-dihydroisoquinolin-5-yl)benzonitrile], the negative logarithm of the IC50 (pIC50) is 6.30 to 7.00.

Consider `COc1c(-c2ccc(N3C[C@@H](C)O[C@@H](C)C3)nn2)cnc2c(-c3ccc(C#N)cc3)cccc12` [Embodiment 175, 4-(3-(6-((2S,6R)-2,6-dimethylmorpholino)pyridazin-3-yl)-4-methoxyquinolin-8-yl) benzonitrile], for which the pIC50 was 6.30 to 7.00.

In the case of `Cc1cn(-c2ccc(N3CCOC(C)(C)C3)cc2)c(=O)c2cccc(-c3ccc(C#N)cc3)c12` [Embodiment 4], the pIC50 is 6.30 to 7.00.

For the compound `COc1c(-c2ccc(N3C[C@@H](C)O[C@@H](C)C3)cc2)cnc2c(C3CCC(C#N)CC3)cccc12` (stereo partly drawn) [Embodiment 116, 4-(3-(4-((2S,6R)-2,6-dimethylmorpholino)phenyl)-4-methoxyquinolin-8-yl) cyclohexane carbonitrile], the negative logarithm of the IC50 (pIC50) was 6.30 to 7.00.

`Cc1cn(-c2ccc(N3Cc4nnc(C(F)(F)F)n4C(C)C3)cc2)c(=O)c2cccc(-c3ccc(C#N)cc3)c12` (centres unmarked) [Embodiment 41, 4-(4-methyl-2-(4-(5-methyl-3-(trifluoromethyl)-5,6-dihydro-[1,2,4]triazolo[4,3-a]pyrazin-7(8H)-yl)phenyl)-1-oxo-1,2-dihydroisoquinolin-5-yl)benzonitrile]: the pIC50 was ≥ 7.30.

Turning to `COc1c(N2CC[C@@H](N3C[C@@H](C)O[C@@H](C)C3)[C@@H](F)C2)cnc2c(-c3ccc(C#N)cc3)cccc12` [Embodiment 233, 4-(3-(4-(2,6-dimethylmorpholino-4-yl)-3-fluoropiperidin-1-yl)-4-methoxyquinolin-8-yl)benzonitrile], the pIC50 was ≥ 7.30.

Take `COc1c(N2CCN(C(=O)Cc3ccncc3)CC2)cnc2c(-c3ccc(C#N)cc3)cccc12` [Embodiment 207, 4-(4-methoxy-3-(4-(2-(pyridin-4-yl)acetyl)piperazin-1-yl)quinolin-8-yl)benzonitrile]: the pIC50 is 6.30 to 7.00.

On to `Cc1cn(-c2ccc(N3C[C@@H](C)O[C@@H](C)C3)cc2)c(=O)c2cccc(-c3ccc(C#N)s3)c12` [Embodiment 44], for which the pIC50 was 6.00 to 6.30.

For the compound `Cc1cn(-c2ccc(N3C[C@@H](C)O[C@@H](C)C3)cc2)c(=O)c2cccc(-c3ccc(C#N)c(F)c3)c12` [Embodiment 59], the pIC50 was 6.00 to 6.30.

Consider `CCOC(=O)N1[C@H](C)CN(c2ccc(-n3cc(C)c4c(-c5ccc(C#N)cc5)cccc4c3=O)cc2)C[C@H]1C` [Embodiment 20], for which the negative logarithm of the IC50 (pIC50) was 6.30 to 7.00.

Regarding `COc1c(-c2ccc(N3C[C@@H](C)O[C@@H](C)C3)cc2)cnc2c(-c3ccc(C#N)cc3)cc(Cl)cc12` [Embodiment 135, 4-(6-chloro-3-(4-((2S,6R)-2,6-dimethylmorpholino)phenyl)-4-methoxyquinolin-8-yl) benzonitrile], the pIC50 was 6.30 to 7.00.

On to `Cc1cn(-c2ccc(N3C[C@@H](C)O[C@@H](C)C3)cc2)c(=O)c2cccc(-c3ccc(OC(F)(F)F)cc3)c12` [Embodiment 47], for which the pIC50 is 5.30 to 6.00.

On to `COc1c(N2CCC(N3C[C@@H](C)O[C@@H](C)C3)C2)cnc2c(-c3ccc(C#N)cc3)cccc12` (some centres unmarked) [Embodiment 229, 4-(3-(3-(2,6-dimethylmorpholino)pyrrolidin-1-yl)-4-methoxyquinolin-8-yl) benzonitrile], for which the pIC50 was 6.30 to 7.00.

In the case of `C[C@@H]1CN(c2ccc(-n3ccc4c(-c5ccc(C#N)cc5)cccc4c3=O)cc2)C[C@H](C)O1` [Embodiment 73], the pIC50 was 6.00 to 6.30.

As to `CCC(=O)N1[C@H](C)CN(c2ccc(NC(=O)c3cnc4c(-c5ccc(C#N)cc5)cccc4c3OC)cn2)C[C@@H]1C` [Embodiment 245, 8-(4-cyanophenyl)-N-(6-((3S,5R)-3,5-dimethyl-4-propionylpiperazin-1-yl)pyridin-3-yl)-4-methoxyquinoline-3-carboxamide], the pIC50 is 6.30 to 7.00.

`Cc1cn(-c2ccc(NCCN3C[C@@H](C)O[C@@H](C)C3)cc2)c(=O)c2cccc(-c3ccc(C#N)cc3)c12` [Embodiment 12]: the pIC50 is 6.00 to 6.30.

As to `COc1c(C2(O)CCN(c3ccc(C(C)(C)O)cn3)CC2)cnc2c(-c3ccc(C#N)cc3)cccc12` [Embodiment 240, 4-(3-(4-hydroxy-5′-(1-hydroxy-1-methyl-ethyl)-3,4,5,6-tetrahydro-2H-[1,2′]bipyridyl-4-yl)4-methoxyquinolin-8-yl)benzonitrile], the pIC50 is 6.30 to 7.00.

As to `CC(C)Oc1c(-c2ccc(N3C[C@@H](C)O[C@@H](C)C3)cc2)cnc2c(-c3ccc(C#N)cc3)cccc12` [Embodiment 144], the pIC50 was 6.30 to 7.00.

Turning to `CC(C)(O)c1ccc(C2(O)CCN(c3cnc4c(-c5ccc(C#N)cc5)cccc4c3C3CC3)CC2)nc1` [Embodiment 262], the pIC50 is ≥ 7.30.

With `CNC(=O)c1ccc(-c2cccc3c(OC)c(-c4ccc(N5C[C@@H](C)O[C@@H](C)C5)cc4)cnc23)cn1` [Embodiment 101], the pIC50 was 6.30 to 7.00.

For `COc1c(-c2ccc(N3C[C@@H](C)N(C(=O)CO)[C@@H](C)C3)nc2)cnc2c(-c3ccc(C#N)cc3)cccc12` [Embodiment 189, 4-(3-(6-(4-(2-hydroxyacetyl)-3,5-dimethylpiperazin-1-yl)pyridin-3-yl)-4-methoxyquinolin-8-yl)benzonitrile], the pIC50 was ≥ 7.30.

In the case of `Cc1cn(-c2ccc(N3C[C@@H](C)O[C@@H](C)C3)cc2)c(=O)c2cccc(-c3ccccc3C#N)c12` [Embodiment 64], the negative-log IC50 (pIC50) was 6.00 to 6.30.

Regarding `C[C@@H]1CN(c2ccc(-n3ccc4c(-c5ccc(OC(F)(F)F)cc5)cccc4c3=O)cn2)C[C@H](C)O1` [Embodiment 72], the negative-log IC50 (pIC50) is 5.30 to 6.00.

On to `COc1c(-c2ccc(N3C[C@@H](C)O[C@@H](C)C3)cc2)cnc2c(-c3nc4ccccc4[nH]3)cccc12` [Embodiment 114, (2S,6R)-4-(4-(8-(1H-benzo[d]imidazol-2-yl)-4-methoxyquinolin-3-yl)phenyl)-2,6-dimethylmorpholine], for which the pIC50 was 5.30 to 6.00.

With `COc1cc(-c2ccc(N3C[C@@H](C)O[C@@H](C)C3)cc2)nc2cccc(-c3ccc(C#N)cc3)c12` [Embodiment 142, 4-(2-(4-((2R,6S)-2,6-dimethylmorpholino)phenyl)-4-methoxyquinolin-5-yl) benzonitrile], the pIC50 is 6.00 to 6.30.

As for `COc1c(-c2ccc(N3C[C@@H](C)O[C@@H](C)C3)nc2)cnc2c(-c3ccc(C(C)C)nc3Cl)cccc12` [Embodiment 164], the pIC50 is 6.30 to 7.00.

On to `COc1c(-c2ccc(N3C[C@@H](C)N(C(=O)C(C)O)[C@@H](C)C3)nc2)cnc2c(-c3ccc(C#N)cc3)cccc12` (some centres unmarked) [Embodiment 195], for which the pIC50 is 7.00 to 7.30.

For `C[C@@H]1CN(c2ccc(-c3cnc4c(-c5ccc(C#N)cc5)cccc4c3NS(C)(=O)=O)cc2)C[C@H](C)O1` [Embodiment 130], the pIC50 was 6.00 to 6.30.

In the case of `C[C@@H]1CN(c2ccc(-n3ccc4c(-c5ccc(C#N)cc5)cccc4c3=O)cc2Cl)C[C@H](C)O1` [Embodiment 77, 4-(2-(3-chloro-4-((2S,6R)-2,6-dimethylmorpholino)phenyl)-1-oxo-1,2-dihydroisoquinolin-5-yl)benzonitrile], the pIC50 was 6.00 to 6.30.

Regarding `COc1c(N2CCN(c3cnc(C(C)(C)O)cn3)C(C)C2)cnc2c(-c3ccc(C#N)cc3)cccc12` (centres unmarked) [Embodiment 225], the pIC50 was ≥ 7.30.

Take `C[C@@H]1CN(c2ccc(-c3cnc4c(-c5ccc(C#N)cc5)cccc4c3N3CCC3)cc2)C[C@H](C)O1` [Embodiment 126, 4-(4-(azetidin-1-yl)-3-(4-((2S,6R)-2,6-dimethylmorpholino)phenyl)quinolin-8-yl) benzonitrile]: the negative-log IC50 (pIC50) is 6.30 to 7.00.

Consider `CCC(=O)N1[C@H](C)CN(c2ccc(-c3cnc4c(-c5ccc(C#N)cc5)cccc4c3O)cn2)C[C@@H]1C` [Embodiment 140, 4-(3-(6-((3S,5R)-3,5-dimethyl-4-propionylpiperazin-1-yl)pyridin-3-yl)-4-hydroxyquinolin-8-yl)benzonitrile], for which the pIC50 was 6.00 to 6.30.

As for `COc1c(-c2ccc(N3C[C@@H](C)O[C@@H](C)C3)cc2)cnc2c(-c3ccc(C#N)cc3)nccc12` [Embodiment 148, 4-(3-(4-((2S,6R)-2,6-dimethylmorpholino)phenyl)-4-methoxy-1,7-naphthyridin-8-yl) benzonitrile], the pIC50 was 7.00 to 7.30.
